The values that follow come from EP1143968B9 (priority 1999, dated 2000).

Data set [1] has as its system coronary arteries of pigs. As to the kind of experiment: In vivo testing of drug-loaded polymer stents in pig coronary arteries. The note with it: for % Intimal Growth / % Diameter Stenosis: metal support/polymer segments stent, 1500 µg drug; for % Intimal Growth / % Diameter Stenosis / reduction in percent stenosis compared to the stent containing paclitaxel: 28 days; for % Diameter Stenosis: morphometric analysis; for reduction in percent stenosis compared to the stent containing paclitaxel: pigs. The method, then:
In studies performed in support of the invention, polymeric materials containing 7-hexanoyl taxol were prepared from an acrylate/methyacrylate monomer mixture and polymerized using a methacrylate crosslinker, as described in Example 2. 7-hexanoyl taxol was incorporated into the polymer by contacting the polymer with a concentrated solution of the 7-hexanoyl taxol in a suitable organic solvent. Such polymeric materials, and polymeric materials similarly formed but with paclitaxel rather than 7-hexanoyl taxol, were used in combination with a support stent, as illustrated in Fig. 3C. The test and control stents were placed in the coronary arteries of pigs, as described in Example 3, and were left in vivo for 28 days. A metal stent not carrying a polymeric material was also placed into an-artery. At the time of insertion of the test and control stents, the coronary artery was characterized using a computer-based coronary angiography analysis system (Umans, V.A., et al., JACC 21(6):1382-1390, (1993)). Boundaries of a selected coronary artery segment were detected automatically from optically magnified and video-digitized regions of interest. The catheter used for insertion of the stents was used as a scaling device to determine the dimensions of the artery at the site of implantation. The original vessel diameter at the time of implantation was determined.
After the 28 day test period, the arteries were then explanted from the pig and pressure fixed for morphometric analysis. […] The percent stenosis was taken as one minus the stented vessel's minimum lumen diameter divided by the diameter of an unstented reference vessel time one-hundred. The percent intimal growth was also determined from the following equation: 1-[(stented vessel's minimum lumenal diameter)/(diameter of stented portion prior to stent placement)]*100. The balloon to artery ratio was also determined as a measure of the degree of distension of the vessel by the balloon.
In another study in support of the invention, stents were prepared as described in Examples 2 and 3. The polymeric materials carried either 7-hexanoyl taxol, paclitaxel or 7-xylosyltaxol. […] The stents were placed in coronary arteries of pigs, according to the procedure described above. After the test period, the percent diameter stenosis and neointimal thickness of the arteries were determined. The percentage of diameter stenosis was determined by two procedures, via quantative coronary angiography (QCA) and via morphometric evaluation of the vessels. The later procedure is described in Example 3. The former procedure, QCA, was performed according to the procedure of Umans, et al. described above, with lumen dimensions determined prior to explanting the vessels for morphometric analysis.
A polymer sleeve, prepared as described in Example 2, was placed about a metal, corrugated stent. The polymer sleeve contained 1500 µg of 7-hexanoyl taxol.
The two-drug loaded stents and two control metal stents with no polymer sleeve were placed into the coronary arteries of healthy Domestic Farm Swine pigs (Pork Power, Inc.) by conventional techniques using a commercially available catheter (Advanced Cardiovascular Systems). The stents were imaged during and after the insertion procedure to ensure proper placement using conventional angiographic imaging techniques. The metal control stents were placed in two different pigs, in one pig the stent was positioned in the left anterior descending artery and in the other pig in the right coronary artery. The comparative control stent containing paclitaxel was placed in one animal in the right coronary artery. The test stents containing 7-hexanoyl taxol were placed in two pigs, one stent in the right coronary artery and the other stent in the other pig in the left circumflex artery.

For data set [2], the system named is non-small cell lung cancer/NCI H226. In words: cells. Type of data set: cell-based. The method, then: (§1) In studies performed in support of the invention, the in vitro cytotoxicity of 7-hexanoyl taxol was compared to paclitaxel. As described in Example 1, LC50 values, which signify the concentration of drug at which 50% of the cells are killed, were determined in five cell lines.
(§2) A suspension of each cell line which was diluted according to the particular cell type and the expected target cell density (5,000-40,000 cells per well based on cell growth characteristics) was added by pipet (100 µL) into a 96-well microtiter plate. The cells were allowed a pre-incubation period of 24 hours at 37°C for stabilization. At the end of the pre-incubation period (T0), dilutions of 7-hexanoyl taxol or paclitaxel were added in 100 µL aliquots to the microtiter plate wells. The cells were incubated in the presence of the drug for 48 hours under a 5% CO2 atmosphere at 100% humidity. The cells were assayed using the sulforhodamine B assay. A plate reader was used to read the optical densities.
(§3) The LC50 values were taken as the concentration of compound where 100 x (T-T0)/T0 = -50.

The next data set has as its system melanoma/SK-MEL-2. In words: cells. Type of data set: cell-based. The method, then: as §1, §2, §3
A further data set concerns melanoma/M14. As to the kind of experiment: cells. The data set is classed as cell-based. As for the experimental part: as §1, §2, §3
The subject of a further data set is colon cancer/HT 29. As to the kind of experiment: cells. Type of data set: cell-based. The method, then: as §1, §2, §3
The subject of the next data set is ovarian cancer/OVCAR-5. As to the kind of experiment: cells. The data set is classed as cell-based. As for the experimental part: as §1, §2, §3
Data set [3] can be described thus: Relative water solubility by reverse phase HPLC. The note with it: for retention time: reverse phase column, silica with diphenylmethyl functionalities, mobile phase acetonitrile/water, longer retention = less water soluble. As for the experimental part: The water solubility of 7-hexanoyl taxol relative to paclitaxel was determined via HPLC analysis using a reverse phase column and illustrations of the HPLC traces are shown in Fig. 2. The column employed was made of silica with the hydrophilic Si-OH functionalities converted to hydrophobic diphenylmethyl functionalities. The mobile phase was acetonitrile/water. In this column, a hydrophilic or water soluble test material is retained primarily in the aqueous mobile phase, resulting in the water soluble compounds eluting from the column earlier than hydrophobic or water insoluble compounds.

[4] abbreviates: Table 3 study, stents in coronary arteries of pigs.

Where two headings read alike, the source gives them in different places.

Regarding `CCCCCC(=O)OC1CC2OCC2(OC(C)=O)C2C(OC(=O)c3ccccc3)C3(O)CC(OC(=O)C(O)C(NC(=O)c4ccccc4)c4ccccc4)C(C)=C(C(OC(C)=O)C(=O)C12C)C3(C)C` (stereo not drawn) [7-hexanoyl taxol], the “intimal thickening compared to paclitaxel” value in data set [1] (setting [4]) was “less”. Further, in data set [1] (setting [4]), the “percent stenosis compared to paclitaxel” value is recorded as “lower”. The “percent diameter stenosis compared to the water-soluble derivative, 7-xylosyltaxol” value in data set [1] (Table 3 study, stents in coronary arteries of pigs, QCA and morphometric evaluation) is “considerably lower”. The “% Intimal Growth” value in data set [1] (left circumflex artery) is 2.3%; in data set [1] (right coronary artery) it was -7.1%. Further, the “% Diameter Stenosis” value is 16% in data set [1] (left circumflex artery) and 4% in data set [1] (right coronary artery). For the same molecule, the “reduction in percent stenosis compared to the stent containing paclitaxel” value in data set [1] (one case (of the two stents with 7-hexanoyl taxol)) is “two-fold”; in data set [1] (the other case (of the two stents with 7-hexanoyl taxol)) it was approximately 8 fold. The CC50 in data set [2] (non-small cell lung cancer/NCI H226, 48 hours with drug, read-out: LC50 (the source's name)) is more than 100 µM; in the data set on melanoma/SK-MEL-2 (melanoma/SK-MEL-2, 48 hours with drug, read-out: LC50 (the source's name)), more than 100 µM; in the data set on melanoma/M14 (melanoma/M14, 48 hours with drug, read-out: LC50 (the source's name)), 1.1 µM; in the data set with colon cancer/HT 29 (colon cancer/HT 29, 48 hours with drug, concentration at which 50% of the cells are killed, read-out: LC50 (the source's name)), 30 µM; in the data set on ovarian cancer/OVCAR-5 (ovarian cancer/OVCAR-5, 48 hours with drug, read-out: LC50 (the source's name)), 50 µM. The “water solubility relative to paclitaxel” value in data set [3] (from the hydrophobic shift of HPLC retention time) is recorded as “less water soluble than paclitaxel”. The retention time in data set [3] stood at 30.9 min.
Regarding `CC(=O)O[C@H]1C(=O)[C@@]2(C)[C@H]([C@H](OC(=O)c3ccccc3)[C@]3(O)C[C@H](OC(=O)[C@H](O)[C@@H](NC(=O)c4ccccc4)c4ccccc4)C(C)=C1C3(C)C)[C@]1(OC(C)=O)CO[C@@H]1C[C@@H]2O` [Paclitaxel, reference compound], in data set [1] (right coronary artery), the “% Intimal Growth” value is on record as 29.5%. Also, the “% Diameter Stenosis” value in data set [1] (right coronary artery) is 34%. In addition, the CC50 is 70 µM in data set [2] (Homo sapiens, NCI-H226, 48 h, read-out: LC50); 100 µM in the data set on melanoma/SK-MEL-2 (Homo sapiens, SK-MEL-2, 48 h, read-out: LC50); 100 µM in the data set on melanoma/M14 (48 h, read-out: LC50); 30 µM with colon cancer/HT 29 (Homo sapiens, HT-29, 48 h, read-out: LC50); more than 100 µM with ovarian cancer/OVCAR-5 (Homo sapiens, OVCAR-5, 48 h, read-out: LC50). The molecule also registered a retention time in data set [3] of 18.5 min.
